Experimental data reported in ChEMBL document CHEMBL5518235, “Identification of Novel Series of Potent and Selective Relaxin Family Peptide Receptor 1 (RXFP1) Agonists” (J Med Chem, 2024).
Values after ≈ are worked out from the molar mass of the structure shown. Active and inactive are the calls of the source. The rule behind the calls is not given here.

Experiments:
Relaxin receptor 1 = molecular target: T1, Relaxin receptor 1 (Homo sapiens, UniProt Q9HBX9); test: Agonist activity at human RXFP1 expressed in T-Rex-CHO-K1 cells assessed as stimulation of cAMP production incubated for 45 mins by HTRF assay; assay type: functional, cell-based
T1 sequence (Q9HBX9 whole entry): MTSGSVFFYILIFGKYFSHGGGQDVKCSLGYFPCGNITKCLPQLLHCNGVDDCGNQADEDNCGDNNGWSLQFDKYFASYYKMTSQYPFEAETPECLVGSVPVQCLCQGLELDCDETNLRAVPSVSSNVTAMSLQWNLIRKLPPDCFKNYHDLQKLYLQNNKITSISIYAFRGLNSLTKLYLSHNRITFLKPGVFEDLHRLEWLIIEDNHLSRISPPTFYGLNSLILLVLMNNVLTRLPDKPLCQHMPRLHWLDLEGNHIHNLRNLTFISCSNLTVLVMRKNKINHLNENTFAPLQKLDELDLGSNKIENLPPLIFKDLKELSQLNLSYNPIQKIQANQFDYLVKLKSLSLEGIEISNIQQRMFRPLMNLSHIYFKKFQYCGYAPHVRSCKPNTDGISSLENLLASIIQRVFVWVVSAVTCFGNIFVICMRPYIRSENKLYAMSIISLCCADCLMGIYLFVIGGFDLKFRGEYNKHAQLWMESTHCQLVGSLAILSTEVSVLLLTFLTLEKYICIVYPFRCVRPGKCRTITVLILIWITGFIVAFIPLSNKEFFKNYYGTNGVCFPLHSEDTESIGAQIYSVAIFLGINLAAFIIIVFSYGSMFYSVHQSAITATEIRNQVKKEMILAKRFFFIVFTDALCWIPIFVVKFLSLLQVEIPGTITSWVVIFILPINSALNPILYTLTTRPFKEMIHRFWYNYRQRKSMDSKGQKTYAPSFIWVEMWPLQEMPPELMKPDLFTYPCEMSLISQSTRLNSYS

[1] = Cytotoxicity against human HepG2 cells cultured as C3a spheroids assessed as reduction in cell viability; assay type: toxicity, cell-based
[2] = molecular target: T2, A-type voltage-gated potassium channel KCND3 (Homo sapiens, UniProt Q9UK17); test: Inhibition of human Kv4.3 by automated electrophysiology recording; assay type: toxicity
T2 sequence (Q9UK17 whole entry): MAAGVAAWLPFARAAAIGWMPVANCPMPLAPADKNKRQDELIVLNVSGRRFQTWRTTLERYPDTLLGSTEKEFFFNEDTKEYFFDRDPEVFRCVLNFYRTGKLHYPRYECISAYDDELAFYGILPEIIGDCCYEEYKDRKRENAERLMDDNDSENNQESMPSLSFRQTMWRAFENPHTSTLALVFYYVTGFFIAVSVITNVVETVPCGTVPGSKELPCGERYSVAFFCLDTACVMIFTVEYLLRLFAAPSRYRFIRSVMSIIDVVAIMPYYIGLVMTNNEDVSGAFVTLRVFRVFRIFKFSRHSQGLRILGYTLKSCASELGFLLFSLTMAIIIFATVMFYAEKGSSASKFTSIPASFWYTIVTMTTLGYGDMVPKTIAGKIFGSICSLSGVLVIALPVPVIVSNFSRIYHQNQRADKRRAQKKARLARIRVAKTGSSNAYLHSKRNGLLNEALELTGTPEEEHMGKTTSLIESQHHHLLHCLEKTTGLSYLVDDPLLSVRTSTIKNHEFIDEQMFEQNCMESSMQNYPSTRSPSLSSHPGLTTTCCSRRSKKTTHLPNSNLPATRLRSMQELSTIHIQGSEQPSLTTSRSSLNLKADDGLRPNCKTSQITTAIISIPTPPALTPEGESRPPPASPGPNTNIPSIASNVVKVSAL

[3] = Protein binding in rat plasma assessed as free fraction at 5 uM incubated for 18 hrs by equilibrium dialysis based LC-MS/MS analysis; assay type: ADME, cell-free
[4] = Solubility of compound in FaSSIF at pH 6.5; assay type: ADME
[5] = Solubility of compound in phosphate buffer at pH 6.5; assay type: physicochemical
[6] = molecular target: T3, Relaxin receptor 1 (Rattus norvegicus) (UniProt Q6R6I6); test: In vivo agonist activity at RXFP1 in Sprague-Dawley rat assessed as hemodynamic effect by measuring increase in heart rate at 1.5 mg/kg, iv administered via bolus followed by 9.0 mg/kg, iv administered via infusion for 3 hrs and measured 1 hrs post washout; assay type: functional, organism-based
T3 sequence (whole entry): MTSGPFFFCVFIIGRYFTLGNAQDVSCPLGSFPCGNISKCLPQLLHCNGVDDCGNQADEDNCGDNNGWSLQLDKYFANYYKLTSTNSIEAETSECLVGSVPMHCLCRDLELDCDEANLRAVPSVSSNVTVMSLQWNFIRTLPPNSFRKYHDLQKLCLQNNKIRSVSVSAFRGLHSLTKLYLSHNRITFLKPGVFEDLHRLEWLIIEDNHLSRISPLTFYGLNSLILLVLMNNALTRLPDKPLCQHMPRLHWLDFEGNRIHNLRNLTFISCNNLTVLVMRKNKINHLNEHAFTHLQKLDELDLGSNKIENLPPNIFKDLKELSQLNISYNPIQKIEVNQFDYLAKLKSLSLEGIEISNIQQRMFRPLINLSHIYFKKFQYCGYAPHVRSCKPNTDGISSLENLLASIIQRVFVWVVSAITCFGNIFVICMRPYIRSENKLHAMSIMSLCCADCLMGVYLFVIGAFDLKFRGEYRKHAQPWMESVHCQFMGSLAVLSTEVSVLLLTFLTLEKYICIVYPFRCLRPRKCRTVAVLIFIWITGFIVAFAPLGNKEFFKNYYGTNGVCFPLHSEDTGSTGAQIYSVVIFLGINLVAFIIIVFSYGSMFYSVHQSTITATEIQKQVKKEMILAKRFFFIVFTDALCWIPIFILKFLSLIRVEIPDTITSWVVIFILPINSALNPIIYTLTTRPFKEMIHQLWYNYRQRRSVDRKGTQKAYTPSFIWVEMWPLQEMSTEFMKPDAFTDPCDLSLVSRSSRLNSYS

- EC50 (Relaxin receptor 1): 0.000398 µM
- fraction unbound at 18 h, 5 µM [3]: 0.0015
- solubility [4]: 6.3 µM (≈ 4.3 µg/mL)
- solubility [5]: 0.13 µM (≈ 0.0887 µg/mL)
SMILES: COc1cc(F)c(O[C@H]2CC[C@@](C)(C(=O)O)CC2)cc1C(=O)N[C@@H]1[C@H]2CC[C@H](C2)[C@@H]1C(=O)Nc1ccc(F)c(S(F)(F)(F)(F)F)c1
- IC50 [1]: 17 µM
- IC50 [2]: > 33 µM
- Activity [6]: Active
